≈ marks a conversion by molar mass, not a printed value. Read-outs that look alike come from different tables or passages of the source. Each block holds one compound with its values, some of them ahead of it.
Columns and labels:
[1] = Human liver microsome (HLM) stability; format: in vitro ADME; conditions: human liver microsomes
Description: (§1) The stability of compounds was assessed in human plasma, human liver microsomes (HLM) and human hepatocytes (Hhep) using procedures previously published (Kong el al., ACS Med Chem Lett 12:1861-1865 (2021)). […] HLM stability T1/2 compound 1: >145 min. Hhep stability Tin compound 1: >217 min.

[2] = Human hepatocyte (Hhep) stability; format: in vitro ADME; conditions: human hepatocytes
Description: as §1

Caco-2 permeability = format: in vitro ADME; conditions: human
Kinetic solubility = format: physicochemical; conditions: kinetic from dmso stock
hsCRBN-DDB1 complex [3] = molecular target: T1, hsCRBN-DDB1 complex (Homo sapiens, UniProt Q96SW2); assay: Intact LC-MS of CRBN-DDB1 complex (covalent labeling); format: binding; conditions: for adduct formation with CRBN (intact MS): equimolar compound, room temperature
Description: After injecting 5 μg, proteins were desalted for four min on column with 100% A and then eluted with an HPLC gradient (0-100% B in 1 min; A=0.2 M acetic acid in water; B=0.2 M acetic acid in acetonitrile). The mass spectrometer was programmed to acquire full scan mass spectra (m/z 300-2000) in profile mode (spray voltage=4.5 kV). Mass spectra were deconvoluted using MagTran software version 1.03b2.

IKZF1 = assay: Inhibition of IKZF1 degradation by lenalidomide, Western blot in MOLT4 cells; conditions: 1 μM compound 2 hr pre-treatment, then 1 μM lenalidomide 5 hours
GSPT1 = molecular target: T2, GSPT1 (Homo sapiens, UniProt P15170); assay: Mass spectrometry proteomics, relative protein abundance in MOLT4 cells (GSPT1); format: cell-based; conditions: 1 μM compound, 5 hours
T2 construct: endogenous in cells; host or cells: MOLT4

PFKFB4 = molecular target: T3, PFKFB4 (Homo sapiens, UniProt Q16877); assay: Mass spectrometry proteomics, relative protein abundance in MOLT4 cells (PFKFB4); format: cell-based; conditions: 1 μM compound, 5 hours
T3 construct: endogenous in cells; host or cells: MOLT4

RNF166 = molecular target: T4, RNF166 (Homo sapiens, UniProt Q96A37); assay: Mass spectrometry proteomics, relative protein abundance in MOLT4 cells (RNF166); format: cell-based; conditions: 1 μM compound, 5 hours
T4 construct: endogenous in cells; host or cells: MOLT4
T4 sequence (Q96A37 1-237): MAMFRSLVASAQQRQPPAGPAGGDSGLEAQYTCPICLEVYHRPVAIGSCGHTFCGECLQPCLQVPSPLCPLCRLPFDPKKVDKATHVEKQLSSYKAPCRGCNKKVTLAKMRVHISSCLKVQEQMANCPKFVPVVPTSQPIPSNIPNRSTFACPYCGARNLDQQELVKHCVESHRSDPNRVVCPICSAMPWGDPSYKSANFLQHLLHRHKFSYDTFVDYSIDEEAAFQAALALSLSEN

hsCRBN-DDB1 complex [4] = molecular target: T1, hsCRBN-DDB1 complex; assay: Peptide mapping CE-MS/MS, site of covalent modification; format: binding; conditions: trypsin digest
Excerpt: Peptides were resolved at 500 V/cm using an HR chip with a background electrolyte consisting of 50% acetonitrile with 1% formic acid. The mass spectrometer was operated in data dependent mode and the five most abundant ions in each MS scan (m/z 300-2000, 60K resolution, 3E6 target, 100 ms max fill time) were subjected to MS/MS (15K resolution, 1E5 target, 100 ms max fill time). […] Search parameters specified fixed vinylpyridine modification of cysteine, variable methionine oxidation, and variable modification of cysteine. Modified spectra were examined and figures prepared using mzStudio software.

NanoLuc-CRBN = molecular target: T5, NanoLuc-CRBN (Homo sapiens, UniProt Q96SW2); assay: Cellular CRBN NanoBret Engagement Assay; format: cell-based
T5 construct: expressed in transfected cells; host or cells: HEK293T, lentiviral transduction, puromycin selection
Description: HEK293T cells were transduced with lentivirus and put under puromycin selection (5 μg/mL) for two weeks to produce a cell line stably expressing CRBN with N-terminally fused NanoLuc® luciferase (NanoLuc-CRBN). After antibiotic selection, cells were cultured in DMEM (Gibco, Life Technologies) supplemented with 10% FBS and 1 μg/mL puromycin to maintain stable NanoLuc®-CRBN expression. […] After 3-4 min, the trypsin was quenched with 5× volume DMEM media (Gibco, Life Technologies) with 10% FBS and cells were collected by centrifugation (1000 rpm, 5 min). The supernatant was removed by vacuum aspiration and the pellet was then resuspended in Opti-MEM™ without phenol red. The density of this cell suspension was determined by diluting the cells 1:1 with trypan blue, then counting using a Countess II (Thermo Fischer Scientific) and then diluted to the required volume at 2×10^5 viable cells/mL in Opti-MEM™ I (Gibco, Life Technologies). […] After plating, the assay plate was centrifuged (500×g, 5 min) and covered in aluminum foil. Compounds for testing were added to the plate using a D300e Digital Dispenser (HP) in duplicate 12-pt titrations from a 10 mM stock in DMSO, with DMSO normalized to 1% total volume. The plate was then placed in an incubator at 37° C., 5% CO2 for two hours. […] This was then added to each well (25 μL/well). The plate was read on a Pherastar FSX microplate reader with simultaneous dual emission capabilities to read 384-well plates at 450 and 520 nm. The NanoBRET™ ratio was calculated by dividing the signal at 520 nm by the signal at 450 nm for each sample. […] The NanoLuc® substrate and extracellular inhibitor were purchased as a kit from Promega Corporation and used as is from the box—Promega NanoBRET™ Nano-Glo® Substrate/Inhibitor; Promega Catalog number N2161 for 10,000 assay kit.

in vitro = conditions: human, plasma
[5] = HEK293T cells stably expressing NanoLuc-CRBN, 250 nM BODIPY-lenalidomide tracer, 2 h incubation, read-out: CRBN NanoBRET IC50

Structure (SMILES): O=C1CCC(N2Cc3ccc(OS(=O)(=O)F)cc3C2=O)C(=O)N1 (stereo not drawn) [Compound 1, 2-(2,6-dioxopiperidin-3-yl)-3-oxoisoindolin-5-yl sulfurofluoridate]
HLM stability T1/2 [1]: > 2.42 h | Hhep stability Tin [2]: > 217 min | Papp (Caco-2 permeability): 29.5 ×10⁻⁶ cm/s | solubility kinetic (Kinetic solubility): 119 µM (≈ 40.7 µg/mL)

Structure (SMILES): O=C1CCC(N2Cc3cc(OS(=O)(=O)F)ccc3C2=O)C(=O)N1 (stereo not drawn) [Compound 2, 2-(2,6-dioxopiperidin-3-yl)-1-oxoisoindolin-5-yl sulfurofluoridate]
adduct formation with CRBN (intact MS) (hsCRBN-DDB1 complex [3]): form an adduct with CRBN

Structure (SMILES): O=C1CCC(N2Cc3ccc(S(=O)(=O)F)cc3C2=O)C(=O)N1 (stereo not drawn) [Compound 3, 2-(2,6-dioxopiperidin-3-yl)-3-oxoisoindoline-5-sulfonyl fluoride]
mass shift of CRBN (Δmass) (hsCRBN-DDB1 complex [3]; 1 eq. compound, 4 hr): 307 | adduct formation with CRBN (intact MS) (hsCRBN-DDB1 complex [3]): form an adduct with CRBN | inhibition of IKZF1 degradation by lenalidomide (IKZF1): clearly inhibits the degradation of IKZF1 by lenalidomide

Structure (SMILES): O=C1CCC(N2Cc3cc(S(=O)(=O)F)ccc3C2=O)C(=O)N1 (stereo not drawn) [Compound 4, 2-(2,6-dioxopiperidin-3-yl)-1-oxoisoindoline-5-sulfonyl fluoride]
relative fold-change abundance of GSPT1 (GSPT1): clearly downregulated | relative fold-change abundance of PFKFB4 (PFKFB4): clearly downregulated | relative fold-change abundance of RNF166 (RNF166): clearly downregulated | adduct formation with CRBN (intact MS) (hsCRBN-DDB1 complex [3]): form an adduct with CRBN | site of covalent labeling of CRBN (hsCRBN-DDB1 complex [4]): label His353

Structure (SMILES): C=CS(=O)(=O)c1ccc2c(c1)C(=O)N(C1CCC(=O)NC1=O)C2 (stereo not drawn) [Compound 5, 3-(1-oxo-6-(vinylsulfonyl)isoindolin-2-yl)piperidine-2,6-dione]
IC50 (NanoLuc-CRBN; [5]): 12.6 µM

Structure (SMILES): C=CS(=O)(=O)Nc1ccc2c(c1)C(=O)N(C1CCC(=O)NC1=O)C2 (stereo not drawn) [Compound 6, N-(2-(2,6-dioxopiperidin-3-yl)-3-oxoisoindolin-5-yl)ethenesulfonamide]
IC50 (NanoLuc-CRBN; [5]): 0.54 µM

Structure (SMILES): Nc1cc(OS(=O)(=O)F)cc2c1CN(C1CCC(=O)NC1=O)C2=O (stereo not drawn) [Compound 10, 4-amino-2-(2,6-dioxo-3-piperidyl)-6-fluorosulfonyloxy-1-oxo-isoindoline]
IC50 (NanoLuc-CRBN): 0.89 µM

Structure (SMILES): Cc1cnn(S(=O)(=O)c2ccc3c(c2)C(=O)N(C2CCC(=O)NC2=O)C3)c1 (stereo not drawn) [Compound 11, 3-(6-((4-methyl-1H-pyrazol-1-yl)sulfonyl)-1-oxoisoindolin-2-yl)piperidine-2,6-dione]
Human plasma stability T1/2: > 4.82 h

Other lines, results leading:

Human plasma stability T1/2: 1.53 h
Structure (SMILES): O=C1CCC(N2Cc3ccc(S(=O)(=O)n4cc(F)cn4)cc3C2=O)C(=O)N1 (stereo not drawn) [Compound 12, 3-(6-((4-fluoro-1H-pyrazol-1-yl)sulfonyl)-1-oxoisoindolin-2-yl)piperidine-2,6-dione]

Human plasma stability T1/2: 0.167 h
Structure (SMILES): O=C1CCC(N2Cc3ccc(S(=O)(=O)n4cc(C(F)(F)F)cn4)cc3C2=O)C(=O)N1 (stereo not drawn) [Compound 13, 3-(1-oxo-6-((4-(trifluoromethyl)-1H-pyrazol-1-yl)sulfonyl)isoindolin-2-yl)piperidine-2,6-dione]

Human plasma stability T1/2: 0.108 h
Structure (SMILES): O=C1CCC(N2Cc3ccc(S(=O)(=O)n4cnc(C(F)(F)F)c4)cc3C2=O)C(=O)N1 (stereo not drawn) [Compound 14, 3-(1-oxo-6-((4-(trifluoromethyl)-1H-imidazol-1-yl)sulfonyl)isoindolin-2-yl)piperidine-2,6-dione]

Human plasma stability T1/2: 1.92 h
Structure (SMILES): O=C1CCC(N2Cc3ccc(S(=O)(=O)n4ccc(F)n4)cc3C2=O)C(=O)N1 (stereo not drawn) [Compound 15, 3-(6-((3-fluoro-1H-pyrazol-1-yl)sulfonyl)-1-oxoisoindolin-2-yl)piperidine-2,6-dione]

Human plasma stability T1/2: 0.317 h
Structure (SMILES): O=C1CCC(N2Cc3ccc(S(=O)(=O)n4cnc(F)c4)cc3C2=O)C(=O)N1 (stereo not drawn) [Compound 17, 3-(6-((4-fluoro-1H-imidazol-1-yl)sulfonyl)-1-oxoisoindolin-2-yl)piperidine-2,6-dione]

Human plasma stability T1/2: 0.233 h
Structure (SMILES): O=C1CCC(N2Cc3ccc(S(=O)(=O)n4ccc(C(F)(F)F)n4)cc3C2=O)C(=O)N1 (stereo not drawn) [Compound 18, 3-(1-oxo-6-((3-(trifluoromethyl)-1H-pyrazol-1-yl)sulfonyl)isoindolin-2-yl)piperidine-2,6-dione]

Human plasma stability T1/2: 3.98 h
Structure (SMILES): Cc1cn(S(=O)(=O)c2ccc3c(c2)C(=O)N(C2CCC(=O)NC2=O)C3)c(=O)[nH]c1=O (stereo not drawn) [Compound 19, 1-((2-(2,6-dioxopiperidin-3-yl)-3-oxoisoindolin-5-yl)sulfonyl)-5-methylpyrimidine-2,4(1H,3H)-dione]

IC50 (NanoLuc-CRBN; [5]): 8.63 µM | half-life (in vitro): > 4.82 h
Structure (SMILES): Nc1cn(S(=O)(=O)c2ccc3c(c2)C(=O)N(C2CCC(=O)NC2=O)C3)c(=O)[nH]c1=O (stereo not drawn) [Compound 20, 5-amino-1-((2-(2,6-dioxopiperidin-3-yl)-3-oxoisoindolin-5-yl)sulfonyl)pyrimidine-2,4(1H,3H)-dione]

Human plasma stability T1/2: 2.72 h
Structure (SMILES): O=C1CCC(N2Cc3ccc(S(=O)(=O)n4ccc(=O)[nH]c4=O)cc3C2=O)C(=O)N1 (stereo not drawn) [Compound 21, 1-((2-(2,6-dioxopiperidin-3-yl)-3-oxoisoindolin-5-yl)sulfonyl)pyrimidine-2,4(1H,3H)-dione]

— patent US20240409528A1, “BINDERS OF CEREBLON AND METHODS OF USE THEREOF” (DANA-FARBER CANCER INSTITUTE, INC., priority 2021, published 2024)
